Experimental data taken from PubChem BioAssay AID1963970 (Molecular Pharmacology Branch, DTP, NCI, 2024).

Test system: 931267-113-T-J1-PDC multicell spheroid viability
Assay: Anticancer human tumor 931267-113-T-J1-PDC patient-derived colon adenocarcinoma cell line growth inhibition [PI3K]
Conditions: for IC50: curve of first compound; for viability, T/C: stronger effect = lower value
Outline: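 Three cell types, namely tumor cells, endothelial cells and mesenchymal stem cells, formed each spheroid. Combinations with four PI3K inhibitors were screened at clinically achievable concentrations decreasing by half-log, and spheroid viability was recorded.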

[1] = second compound 0.0316 µM, first compound 0.0316 µM
[2] = second compound 0.0316 µM, first compound 0.1 µM
[3] = second compound 0.0316 µM, first compound 0.316 µM
[4] = second compound 0.0316 µM, first compound 1 µM
[5] = second compound 0.0316 µM, first compound 3.16 µM
[6] = second compound 0.0316 µM, first compound 10 µM
[7] = second compound 0.1 µM, first compound 0.0316 µM
[8] = second compound 0.1 µM, first compound 0.1 µM
[9] = second compound 0.1 µM, first compound 0.316 µM
[10] = second compound 0.1 µM, first compound 1 µM
[11] = second compound 0.1 µM, first compound 3.16 µM
[12] = second compound 0.1 µM, first compound 10 µM
[13] = second compound 0.316 µM, first compound 0.0316 µM
[14] = second compound 0.316 µM, first compound 0.1 µM
[15] = second compound 0.316 µM, first compound 0.316 µM
[16] = second compound 0.316 µM, first compound 1 µM
[17] = second compound 0.316 µM, first compound 3.16 µM
[18] = second compound 0.316 µM, first compound 10 µM
[19] = second compound 1 µM, first compound 0.0316 µM
[20] = second compound 1 µM, first compound 0.1 µM
[21] = second compound 1 µM, first compound 0.316 µM
[22] = second compound 1 µM, first compound 1 µM
[23] = second compound 1 µM, first compound 3.16 µM
[24] = second compound 1 µM, first compound 10 µM
[25] = second compound 3.16 µM, first compound 0.0316 µM
[26] = second compound 3.16 µM, first compound 0.1 µM
[27] = second compound 3.16 µM, first compound 0.316 µM
[28] = second compound 3.16 µM, first compound 1 µM
[29] = second compound 3.16 µM, first compound 3.16 µM
[30] = second compound 3.16 µM, first compound 10 µM
[31] = second compound 10 µM, first compound 0.0316 µM
[32] = second compound 10 µM, first compound 0.1 µM
[33] = second compound 10 µM, first compound 0.316 µM
[34] = second compound 10 µM, first compound 1 µM
[35] = second compound 10 µM, first compound 3.16 µM
[36] = second compound 10 µM, first compound 10 µM
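Note: viability read 7 days after compound addition.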

SMILES: C#Cc1c(F)ccc2cc(O)cc(-c3ncc4c(N5CC6CCC(C5)N6)nc(OCC56CCCN5CC(F)C6)nc4c3F)c12 (centres undefined) + Cc1nc(NC(=O)N2CCCC2C(N)=O)sc1-c1ccnc(C(C)(C)C(F)(F)F)c1
- IC50 (second compound 0.0316 µM): 0.403 µM
- IC50 (second compound 0.1 µM): 0.467 µM
- IC50 (second compound 0.316 µM): 0.183 µM
- IC50 (second compound 1 µM): 0.127 µM
- IC50 (second compound 3.16 µM): 0.104 µM
- IC50 (second compound 10 µM): < 0.0316 µM
- viability, T/C [1]: 80.2%
- viability, T/C [2]: 71.2%
- viability, T/C [3]: 50.4%
- viability, T/C [4]: 40%
- viability, T/C [5]: 29.8%
- viability, T/C [6]: 23.8%
- viability, T/C [7]: 84.3%
- viability, T/C [8]: 71.8%
- viability, T/C [9]: 54.1%
- viability, T/C [10]: 41.4%
- viability, T/C [11]: 25.6%
- viability, T/C [12]: 19.4%
- viability, T/C [13]: 72.6%
- viability, T/C [14]: 59.2%
- viability, T/C [15]: 41.4%
- viability, T/C [16]: 30.9%
- viability, T/C [17]: 26.3%
- viability, T/C [18]: 15.3%
- viability, T/C [19]: 67.3%
- viability, T/C [20]: 54.3%
- viability, T/C [21]: 37.2%
- viability, T/C [22]: 28.3%
- viability, T/C [23]: 21%
- viability, T/C [24]: 13.7%
- viability, T/C [25]: 67%
- viability, T/C [26]: 51.9%
- viability, T/C [27]: 29.4%
- viability, T/C [28]: 21.2%
- viability, T/C [29]: 15.8%
- viability, T/C [30]: 11.5%
- viability, T/C [31]: 49.1%
- viability, T/C [32]: 38.7%
- viability, T/C [33]: 25.2%
- viability, T/C [34]: 18.8%
- viability, T/C [35]: 16.9%
- viability, T/C [36]: 9.04%

SMILES: CC1(C)CCC(Nc2ncc(C(F)(F)F)c(-c3c[nH]c4c(P(C)(C)=O)c(C#N)ccc34)n2)CN1 (centres undefined) + Cc1nc(NC(=O)N2CCCC2C(N)=O)sc1-c1ccnc(C(C)(C)C(F)(F)F)c1
- IC50 (second compound 0.0316 µM): > 10 µM
- IC50 (second compound 0.1 µM): > 10 µM
- IC50 (second compound 0.316 µM): > 10 µM
- IC50 (second compound 1 µM): > 10 µM
- IC50 (second compound 3.16 µM): 9.36 µM
- IC50 (second compound 10 µM): 3.31 µM
- viability, T/C [1]: 101%
- viability, T/C [2]: 93.7%
- viability, T/C [3]: 83.2%
- viability, T/C [4]: 74.1%
- viability, T/C [5]: 70.9%
- viability, T/C [6]: 58.2%
- viability, T/C [7]: 94.5%
- viability, T/C [8]: 70.2%
- viability, T/C [9]: 70.7%
- viability, T/C [10]: 70.5%
- viability, T/C [11]: 77.9%
- viability, T/C [12]: 58%
- viability, T/C [13]: 79.6%
- viability, T/C [14]: 79%
- viability, T/C [15]: 80.4%
- viability, T/C [16]: 67.6%
- viability, T/C [17]: 74.5%
- viability, T/C [18]: 54.6%
- viability, T/C [19]: 82%
- viability, T/C [20]: 77.6%
- viability, T/C [21]: 70.7%
- viability, T/C [22]: 69.6%
- viability, T/C [23]: 62.3%
- viability, T/C [24]: 52.2%
- viability, T/C [25]: 75%
- viability, T/C [26]: 65.5%
- viability, T/C [27]: 60.6%
- viability, T/C [28]: 63.2%
- viability, T/C [29]: 61.5%
- viability, T/C [30]: 46%
- viability, T/C [31]: 54%
- viability, T/C [32]: 50.6%
- viability, T/C [33]: 49.8%
- viability, T/C [34]: 47%
- viability, T/C [35]: 52.7%
- viability, T/C [36]: 30.4%
